From patent publication US8815883B2, “Compounds and methods for inhibiting serotonin synthesis” (The Trustees of Columbia Unviersity in the City of New York, priority 2009, dated 2014)
Entries after “also recorded” stand apart in the source; their conditions may differ. Counter-ions that a name gives are not always drawn. Each block holds one compound with its values, some of them ahead of it.

Columns and labels:
5-HT1B receptor = 5-HT1B receptor (Homo sapiens, UniProt P28222); details: selective 5-HT1B receptor antagonist; British Journal of Pharmacology (2003) 138, 71-80; cited from earlier work
Sequence of 5-HT1B receptor (P28222 whole entry): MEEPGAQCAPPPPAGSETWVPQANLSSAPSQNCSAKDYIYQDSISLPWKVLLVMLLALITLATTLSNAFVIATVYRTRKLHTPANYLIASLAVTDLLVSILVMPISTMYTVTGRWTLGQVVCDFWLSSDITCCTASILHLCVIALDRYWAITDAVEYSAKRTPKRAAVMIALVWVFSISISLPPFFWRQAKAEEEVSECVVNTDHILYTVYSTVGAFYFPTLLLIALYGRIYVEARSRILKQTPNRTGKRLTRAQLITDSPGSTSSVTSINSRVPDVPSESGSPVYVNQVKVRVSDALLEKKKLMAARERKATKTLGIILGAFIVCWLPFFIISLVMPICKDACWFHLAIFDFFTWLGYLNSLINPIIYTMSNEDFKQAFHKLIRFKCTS

rb 5-HT1B receptors = rb 5-HT1B receptors (Oryctolagus cuniculus, UniProt P49144); details: British Journal of Pharmacology (1997) 120, 153; cited from earlier work
Sequence of rb 5-HT1B receptors (P49144 whole entry): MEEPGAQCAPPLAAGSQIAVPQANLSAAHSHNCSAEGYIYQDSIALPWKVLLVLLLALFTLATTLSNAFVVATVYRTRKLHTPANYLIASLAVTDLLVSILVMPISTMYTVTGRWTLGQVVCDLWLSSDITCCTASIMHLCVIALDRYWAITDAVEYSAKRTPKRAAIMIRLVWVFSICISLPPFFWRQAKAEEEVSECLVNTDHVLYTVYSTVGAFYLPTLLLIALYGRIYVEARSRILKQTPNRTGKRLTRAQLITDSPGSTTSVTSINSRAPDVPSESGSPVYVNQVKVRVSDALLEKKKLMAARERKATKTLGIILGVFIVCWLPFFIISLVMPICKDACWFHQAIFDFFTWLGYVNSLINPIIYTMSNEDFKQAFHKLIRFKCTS

Lrp5−/− mice = test: pCPA treatment of WT and Lrp5−/− mice: bone histomorphometry, serum serotonin, gut TPH1 and brain TPH2 expression; type: in vivo; details: 300 mg/kg pCPA intraperitoneally three times per week, from 3 weeks to 12 weeks of age
Protocol: Consistent with the conclusion that the increase in serum serotonin level is responsible fully or partly for the bone phenotype of the Lrp5−/− mice is the discovery that pCPA, a serotonin synthesis inhibitor (Eldridge et al., 1981, Ann. Rev. Physiol. 43:121-135), prevented the appearance of the Lrp5−/− bone phenotype by decreasing serotonin production. WT and Lrp5−/− mice were treated with 300 mg/kg pCPA intraperitoneally three times per week, from 3 weeks to 12 weeks of age (FIG. 7A) and the changes in serum serotonin levels, TPH1 expression in gut and TPH2 expression in brain stem were analyzed. Bone histomorphometry was also performed. […] This rescue of the Lrp5 −/− phenotype was achieved by normalization of the gut TPH1 mRNA and of serum serotonin levels (FIGS. 7C and 7D).
Generation of Lrp5−/− (Kato et al., 2002, J. Cell Biol. 157:303-314) β-cateninfloxed/floxed (Glass et al., 2005, Dev. Cell 8:751-764), α1(I)collagen-cre transgenic (Dacquin et al., 2002, Dev. Dyn. 224:245-251) and Htt−/− (Ansorge et al., 2008, J. Neurosci. 28:199-207) mice were as described previously. Lrp5+/−;Htt+/− double heterozygous mice were generated by crossing Lrp5+/− and Htt+/− mice. Three week-old Wt or Lrp5−/− mice were administered pCPA on alternate days for 9 weeks by i.p. All animal protocols were approved by the Animal Care Committees of Columbia University.
Static histomorphometry measurements were performed as previously described in accordance with standard nomenclature, using the Osteomeasure Analysis System (Osteometrics, Inc) (Ducy et al., 2000, Cell 100:197-207). Four to 9 animals were assigned per group.
Serotonin serum levels were quantified using immunoassay kits from Fitzgerald (Serotonin) and serotonin levels in the different regions of the brain were quantified by HPLC method as described previously (Mann et al., 1992, Arch. Gen. Psychiatry 49:442-446).

Cyclin D1 mouse promoter = test: ChIP analysis of CREB binding to the Cyclin D1 promoter in primary osteoblasts treated with serotonin; type: cell-based
Protocol: (§1) Decreased expression of Cyclin D1 is a major feature of both Lrp5 deficiency and serotonin treatment of osteoblasts (FIGS. 1 and 8). One transcription factor that is known to modulate the expression of cyclin genes and is expressed in osteoblasts is CREB (Fu et al., 2005, Cell 122:803-815). Therefore, whether serotonin could decrease CREB activity in these cells was tested. […] Furthermore, a CREB binding site in the Cyclin D1 mouse promoter was identified and it was shown using ChIP assays that serotonin decreased binding of CREB to this promoter (FIG. 9B). These two observations raise the hypothesis that CREB could be mediating serotonin action on osteoblasts.
(§2) Osteoblasts were treated in serum-free medium with vehicle or Serotonin (50 to 100 μM, Sigma) for 24 hr. Total RNA were extracted with Trizol (Invitrogen). cDNA were generated using the ABI Reverse transcriptase system and random hexanucleotide primers. Real-time PCR was performed using superarray primers on a Stratagene real time PCR cycler and Actin expression was used as endogenous control. Chromatin immunoprecipitation assays (ChIP) were performed by standard procedures using primary osteoblasts. Microarray analysis was performed as described previously (Glass et al., 2005, Dev. Cell 8:751-764).

CREB = test: Western blot analysis of CREB phosphorylation in primary osteoblasts treated with serotonin; type: cell-based, mouse; details: serotonin 50 to 100 μM
Protocol: as §1
Osteoblasts were treated in serum-free medium with vehicle or Serotonin (50 to 100 μM, Sigma) for 24 hr. Lysates from primary osteoblasts or crushed frozen bones were prepared in RIPA buffer in the presence of protease and phosphatase inhibitors. Twenty to 60 μg of proteins were separated by SDS-PAGE in reducing conditions and transferred on nitrocellulose membrane using standard protocols. Membranes were incubated with primary antibodies including total or anti-Phospho CREB (Cell Signaling Technology).

primary osteoblasts = test: Real-time PCR analysis of cyclin and osteoblast-specific gene expression in primary osteoblasts treated with serotonin; type: cell-based, mouse; details: serotonin 50 to 100 μM, 24 hr, vs vehicle
Protocol: To test whether serotonin regulates the expression of cyclins in osteoblasts, a real-time PCR analysis of cyclin expression in primary osteoblasts treated with serotonin or vehicle was performed. […] In contrast, expression of Runx2, Osteocalcin and Type I collagen was not modified (FIG. 8B).
Calvaria osteoblasts were extracted by triple collagenase/trypsine digestion from 4 day-old CD1 pups and differentiated with ascorbic acid as previously described (Ducy et al., 2000, Cell 100:197-207).
as §2

SMILES: CN(C)CCCc1cc(C(=O)Nc2ccc(-c3ccncc3)cc2)ccc1O [GR 55562, 3-[3-(dimethylamino)propyl]-4-hydroxy-N-[4-(4-pyridinyl)phenyl]benzamide dihydrochloride]
- Kb (5-HT1B receptor): ~100 nM

SMILES: O=C(c1ccc(F)cc1)C1CCN(CCn2c(=O)[nH]c3ccccc3c2=O)CC1 [ketanserin]
- mode of antagonism at rb 5-HT1B receptors (rb 5-HT1B receptors): silent, competitive antagonists

SMILES: CSc1ccc2c(c1)C(N1CCN(C)CC1)Cc1ccccc1S2 (stereo not drawn) [methiothepin]
- mode of antagonism at rb 5-HT1B receptors (rb 5-HT1B receptors): silent, competitive antagonists

SMILES: NC(Cc1ccc(Cl)cc1)C(=O)O (stereo not drawn) [pCPA, para-chlorophenylalanine]
- gut TPH1 mRNA (Lrp5−/− mice; Lrp5−/− mice): normalization
- bone abnormalities (bone histomorphometry) (Lrp5−/− mice; Lrp5−/− mice, 300 mg/kg): corrects bone abnormalities; also recorded: corrects their low bone phenotype; also recorded: corrected the bone abnormalities
- serum serotonin levels (Lrp5−/− mice; Lrp5−/− mice, 300 mg/kg): normalizes; also recorded: normalization
- bone mass (Lrp5−/− mice; WT mice): without overtly affecting bone mass
- Brain TPH2 mRNA levels (Lrp5−/− mice; treated mice): not affected

- binding of CREB to the Cyclin D1 promoter (ChIP) (Cyclin D1 mouse promoter): decreased
SMILES: NCCc1c[nH]c2ccc(O)cc12 [serotonin, 5-hydroxytryptamine]
- CREB phosphorylation (CREB): significantly decreased
- expression of Cyclin D1 (primary osteoblasts): decreased
- expression of Cyclin D2 (primary osteoblasts): decreased
- expression of Osteocalcin (primary osteoblasts): not modified
- expression of Runx2 (primary osteoblasts): not modified
- expression of Type I collagen (primary osteoblasts): not modified
